Source: publication PMC6037852, “Design of Diarylheptanoid Derivatives as Dual Inhibitors Against Class IIa Histone Deacetylase and β-amyloid Aggregation” (Frontiers in Pharmacology, 2018)

Experiments:
HeLa nuclear HDACs = assay: HDAC fluorometric activity assay, HeLa nuclear extract; settings: read-out: IC50 HeLa Nuclear HDACs; Boc-Lys(Ac)-AMC 10 μM
HDAC5 = HDAC5 (Homo sapiens, UniProt Q9UQL6); assay: HDAC fluorometric activity assay, HDAC5; settings: IC50 Class IIa HDAC5, fluorogenic HDAC class IIa substrate 10 μM
HDAC4 = target: T1, HDAC4 (Homo sapiens, UniProt P56524); assay: HDAC fluorometric activity assay, HDAC4; type: biochemical; settings: Boc-Lys(TFA)-AMC 10 μM; read-out: IC50 Class IIa HDAC4
T1 construct: Genes encoding HDAC4 (residues 648–1057) flanked with NdeI and EcoRI sites; made in house; host or cells: E. coli BL21(DE3)
Method: Proteins were expressed in BL21(DE3) cells by overnight induction with IPTG (1 mM) at 20–25°C and purified from cleared cell lysates by sequential chromatography on Ni-Sepharose 6 fast flow, Mono Q 5/50 GL, and Superdex 75 10/300 GL columns (GE Healthcare). Protein concentrations were quantified with Bradford Reagent (Bio-Rad).
Enzyme, inhibitors and substrate were diluted with HDAC buffer (15 mM Tris-HCl pH 8.1, 0.25 mM EDTA, 250 mM NaCl, 10% v:v glycerol). Briefly, 10 μL diluted HDAC, i.e., HeLa nuclear extract (Enzo), HDAC6 (BPS), HDAC4, HDAC5 (BPS), HDAC7 (BPS) and HDAC9 (BPS), as well as 50 μL of testing compounds at different concentrations were added to each well of a 96-well microtiter plate and pre-incubated at 30°C for 5 min. […] The fluorescence in wells without test compounds (0.1% DMSO, negative control) was set as 100% enzymatic activity and the fluorescence in wells with enzyme eliminated was set as 0% enzymatic activity. The fluorescence ratio of test compounds to negative control was defined as percentage of remaining enzyme activity. The IC50 values were calculated by linear regression of the data. All experiments were performed in triplicate.

Aβ1-42 = target: T2, Aβ1-42 (Homo sapiens, UniProt P05067); assay: Inhibition of Aβ1-42 self-aggregation, thioflavin-T (ThT) fluorescence assay; type: biochemical; settings: 24 h; for IC50: read-out: Beta-Amyloid Aggregation IC50; for inhibition at 10 µM: single concentration of 10 μM, read-out: Beta-Amyloid Aggregation Inhibition (%)
T2 construct: Aβ1-42 peptides were purchased from Kelowna International Scientific Inc; purchased Kelowna International Scientific Inc
Method: Inhibition of Aβ1-42 self-aggregation was measured by thioflavin-T (ThT) fluorescence assay ([Hudson et al., 2009]). Aβ1-42 peptides were purchased from Kelowna International Scientific Inc. To avoid Aβ1-42 self-aggregation before the start of the experiment, Aβ1-42 peptides were dissolved in hexafluoroisopropanol (HFIP) to a concentration of 1 mM. The clear solution containing the dissolved peptide was then aliquoted in micro centrifuge tube. The solution was evaporated under vacuum to remove HFIP to give monomeric Aβ1-42. The monomeric Aβ1-42 was dissolved in NaOH(aq) (60 mM) to give a stock solution (1 mM). The Aβ1-42 stock solution was diluted with 50 mM phosphate buffer (containing 0.15 M NaCl, pH 7.4) before use. Fresh ThT stock solution was prepared by dissolving ThT (Sigma, T3516) in phosphate buffer and filtrated through […] Nylon syringe filter. The ThT stock solution and 400 mM ethylenediaminetetraacetic acid (EDTA) were diluted into the phosphate buffer to generate the working solution as background. A mixture of working solution (ThT final concentration: 10 μM), Aβ1-42 stock solution (Aβ1-42 final concentration: 10 μM) and the tested compounds were incubated on BioShake iQ ThermoMixer (37°C, 700 rpm) for 24 h. Fluorescence was measured by Victor 2X microplate spectrophotometer (excitation λ = 440 nm, emission λ = 486 nm), and adapted for 96-well microtiter plates. The fluorescence intensities were recorded and the percent inhibition due to the presence of the inhibitors were calculated by the following formula: (1 - IFi/IFc) × 100% where IFi and IFc were the fluorescence intensities obtained for Aβ1-42 in the presence and in the absence of inhibitors after subtracting the background, respectively. The IC50 values were calculated by the linear regression model of the data. All experiments were performed in triplicate.

HDAC9 = HDAC9 (Homo sapiens, UniProt Q9UKV0); assay: HDAC fluorometric activity assay, HDAC9
HDAC7 = target: T3, HDAC7 (Homo sapiens, UniProt Q8WUI4); assay: HDAC fluorometric activity assay, HDAC7; settings: IC50 Class IIa HDAC7, fluorogenic HDAC class IIa substrate 10 μM
T3 sequence (Q8WUI4 1-952): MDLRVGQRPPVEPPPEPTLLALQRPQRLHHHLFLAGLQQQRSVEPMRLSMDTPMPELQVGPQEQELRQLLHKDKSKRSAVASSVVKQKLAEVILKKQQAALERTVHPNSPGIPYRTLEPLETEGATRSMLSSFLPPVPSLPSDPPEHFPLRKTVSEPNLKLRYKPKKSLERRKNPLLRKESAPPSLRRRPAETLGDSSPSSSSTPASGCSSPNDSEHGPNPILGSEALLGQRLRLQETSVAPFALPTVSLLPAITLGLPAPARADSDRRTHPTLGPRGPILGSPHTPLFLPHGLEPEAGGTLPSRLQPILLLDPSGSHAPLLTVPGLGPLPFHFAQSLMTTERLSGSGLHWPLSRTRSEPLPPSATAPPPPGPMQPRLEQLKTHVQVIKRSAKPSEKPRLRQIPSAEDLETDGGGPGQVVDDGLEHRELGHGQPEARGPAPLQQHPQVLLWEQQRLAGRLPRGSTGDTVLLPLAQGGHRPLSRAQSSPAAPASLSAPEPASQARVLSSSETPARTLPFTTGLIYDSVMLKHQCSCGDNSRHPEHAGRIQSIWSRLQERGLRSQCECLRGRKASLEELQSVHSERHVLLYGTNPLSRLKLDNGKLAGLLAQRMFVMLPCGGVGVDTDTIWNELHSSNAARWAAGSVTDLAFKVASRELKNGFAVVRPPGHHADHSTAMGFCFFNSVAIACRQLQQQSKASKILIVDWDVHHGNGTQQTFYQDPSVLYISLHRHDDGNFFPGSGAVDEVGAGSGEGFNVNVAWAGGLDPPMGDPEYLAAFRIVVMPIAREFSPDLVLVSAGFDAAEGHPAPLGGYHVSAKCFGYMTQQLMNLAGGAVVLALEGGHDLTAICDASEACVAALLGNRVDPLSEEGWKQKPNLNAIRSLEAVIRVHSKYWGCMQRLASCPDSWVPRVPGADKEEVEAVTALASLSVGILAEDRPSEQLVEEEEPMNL

T1 sequence (P56524 648-1057): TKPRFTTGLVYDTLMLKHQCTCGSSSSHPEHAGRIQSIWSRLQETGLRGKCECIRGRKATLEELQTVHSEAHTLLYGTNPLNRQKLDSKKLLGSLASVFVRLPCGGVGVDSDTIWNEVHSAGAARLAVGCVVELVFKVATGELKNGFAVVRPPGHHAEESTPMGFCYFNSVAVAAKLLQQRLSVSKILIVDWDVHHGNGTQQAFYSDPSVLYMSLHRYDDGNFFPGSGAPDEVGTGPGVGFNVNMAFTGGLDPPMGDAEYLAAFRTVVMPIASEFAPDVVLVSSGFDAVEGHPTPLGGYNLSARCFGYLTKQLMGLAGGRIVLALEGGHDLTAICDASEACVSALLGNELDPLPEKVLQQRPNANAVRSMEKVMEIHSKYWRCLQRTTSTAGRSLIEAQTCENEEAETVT
T2 sequence (P05067 672-713 limits assumed): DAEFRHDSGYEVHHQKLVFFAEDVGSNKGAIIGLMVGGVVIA
HDAC9, sequence (Q9UKV0 whole entry): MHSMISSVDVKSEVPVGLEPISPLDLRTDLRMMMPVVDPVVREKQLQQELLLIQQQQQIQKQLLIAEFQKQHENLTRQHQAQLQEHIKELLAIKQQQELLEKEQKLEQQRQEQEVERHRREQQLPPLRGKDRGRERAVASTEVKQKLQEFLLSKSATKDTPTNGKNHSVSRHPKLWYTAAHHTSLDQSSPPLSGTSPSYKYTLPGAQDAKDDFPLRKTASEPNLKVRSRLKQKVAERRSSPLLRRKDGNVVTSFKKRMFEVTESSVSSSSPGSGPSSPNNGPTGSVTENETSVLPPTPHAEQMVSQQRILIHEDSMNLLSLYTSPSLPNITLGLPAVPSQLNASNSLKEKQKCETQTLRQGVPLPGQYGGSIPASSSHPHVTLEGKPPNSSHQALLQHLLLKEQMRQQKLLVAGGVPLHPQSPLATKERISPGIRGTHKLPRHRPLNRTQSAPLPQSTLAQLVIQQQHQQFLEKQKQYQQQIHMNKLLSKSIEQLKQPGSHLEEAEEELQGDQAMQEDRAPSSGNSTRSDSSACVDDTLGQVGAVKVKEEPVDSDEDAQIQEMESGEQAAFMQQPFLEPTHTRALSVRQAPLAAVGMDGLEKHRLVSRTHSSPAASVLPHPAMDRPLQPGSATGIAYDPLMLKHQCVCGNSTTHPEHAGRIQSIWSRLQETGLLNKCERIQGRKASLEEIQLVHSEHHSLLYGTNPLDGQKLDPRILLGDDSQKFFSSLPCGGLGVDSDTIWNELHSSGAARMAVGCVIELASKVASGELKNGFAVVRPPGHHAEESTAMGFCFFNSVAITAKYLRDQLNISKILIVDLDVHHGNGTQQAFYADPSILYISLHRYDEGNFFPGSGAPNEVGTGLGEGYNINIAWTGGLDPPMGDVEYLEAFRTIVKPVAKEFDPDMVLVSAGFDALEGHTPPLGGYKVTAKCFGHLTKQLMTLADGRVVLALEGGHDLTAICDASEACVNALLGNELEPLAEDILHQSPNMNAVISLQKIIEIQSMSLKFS
HDAC5, sequence (Q9UQL6 whole entry): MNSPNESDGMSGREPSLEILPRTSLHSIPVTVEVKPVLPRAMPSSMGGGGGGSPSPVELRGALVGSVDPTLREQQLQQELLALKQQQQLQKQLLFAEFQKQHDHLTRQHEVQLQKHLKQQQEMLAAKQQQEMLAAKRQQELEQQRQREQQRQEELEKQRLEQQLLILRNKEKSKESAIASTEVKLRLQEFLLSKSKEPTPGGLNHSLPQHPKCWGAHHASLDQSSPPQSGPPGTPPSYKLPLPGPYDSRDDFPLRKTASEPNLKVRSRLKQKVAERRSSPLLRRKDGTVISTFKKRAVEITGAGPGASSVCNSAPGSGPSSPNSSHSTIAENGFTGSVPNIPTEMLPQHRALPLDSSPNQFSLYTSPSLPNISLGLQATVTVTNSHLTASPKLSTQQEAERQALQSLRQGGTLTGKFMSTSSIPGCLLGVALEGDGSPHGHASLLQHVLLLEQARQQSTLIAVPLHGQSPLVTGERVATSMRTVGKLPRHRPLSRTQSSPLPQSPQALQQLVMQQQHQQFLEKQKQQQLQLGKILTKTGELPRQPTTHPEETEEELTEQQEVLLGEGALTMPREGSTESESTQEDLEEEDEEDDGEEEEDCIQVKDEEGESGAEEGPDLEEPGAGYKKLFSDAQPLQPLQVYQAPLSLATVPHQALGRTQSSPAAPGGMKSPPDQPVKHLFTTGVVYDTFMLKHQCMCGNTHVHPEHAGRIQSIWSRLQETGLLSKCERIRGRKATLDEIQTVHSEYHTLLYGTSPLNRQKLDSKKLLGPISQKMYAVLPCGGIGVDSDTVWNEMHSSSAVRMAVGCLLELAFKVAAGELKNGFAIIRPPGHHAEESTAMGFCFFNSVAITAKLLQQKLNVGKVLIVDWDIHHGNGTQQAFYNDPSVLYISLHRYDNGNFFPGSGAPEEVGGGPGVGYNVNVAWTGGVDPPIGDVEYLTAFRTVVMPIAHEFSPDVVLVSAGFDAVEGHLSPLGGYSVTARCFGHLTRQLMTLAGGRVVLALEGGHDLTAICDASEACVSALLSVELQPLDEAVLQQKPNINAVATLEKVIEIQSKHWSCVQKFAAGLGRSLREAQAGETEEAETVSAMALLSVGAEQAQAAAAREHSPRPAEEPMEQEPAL

SMILES | IC50 (HeLa nuclear HDACs) [µM] | IC50 (HDAC5) [µM] | IC50 (HDAC4) [µM] | IC50 (Aβ1-42) [µM] | inhibition at 10 µM (Aβ1-42) [%] | IC50 (HDAC9) [µM] | IC50 (HDAC7) [µM]
O=C(/C=C/c1ccc(O)c(O)c1)CCc1ccccc1 [Compound 7c] | > 40 | 15.6 ± 0.4 | 38.3 | 3.4 ± 0.4 | 83.7 ± 0.8 | 36.8 ± 0.7 | 13.6 ± 1.1
O=C(/C=C/c1ccc(O)c(O)c1)CCCc1ccccc1 [Compound 7d] | > 40 | 12.6 ± 2.3 | 35 ± 2.8 | 3.1 ± 0.3 | 74 ± 9.5 | 17.3 ± 0.1 | 9.4 ± 0.2
O=C(CCc1ccc(O)c(O)c1)c1ccccc1 [Compound 8a] | > 40 | 6.2 ± 0.4 | > 40 | 8.6 ± 1.1 | 66.4 ± 1 | 14.2 ± 1.6 | 12 ± 1
O=C(CCc1ccc(O)c(O)c1)Cc1ccccc1 [Compound 8b] | > 40 | 9 ± 0.2 | > 40 | 8.1 ± 1.2 | 68.6 ± 4.1 | 37.1 ± 0.9 | 13.7 ± 0.7
O=C(CCc1ccccc1)CCc1ccc(O)c(O)c1 [Compound 8c] | > 40 | 8.2 ± 0.1 | > 40 | 8 ± 1.6 | 71.3 ± 3.8 | 33.8 ± 3.8 | 8.9 ± 0.4
O=C(CCCc1ccccc1)CCc1ccc(O)c(O)c1 [Compound 8d] | > 40 | 7.5 ± 0.3 | > 40 | 8.5 ± 0.2 | 59 ± 5.8 | 17.3 ± 3.2 | 7.4 ± 1.6
